Data: ChEMBL document CHEMBL3045159, “Computational evaluation and experimental in vitro antibacterial, antifungal and antiviral activity of bis-Schiff bases of isatin and its derivatives” (Med Chem Res, 2013)
In brackets after ≈: the same amount, converted by molar mass.

Tests used:
[1] = Cytotoxicity against Homo sapiens (human) HeLa cells; format: cell-based
[2] = test system: Vesicular stomatitis virus; experiment: Antiviral activity against Vesicular stomatitis virus infected HEL cells; format: functional
Human respirovirus 3 = experiment: Antiviral activity against Human parainfluenza virus 3 infected Vero cells; format: functional
Human alphaherpesvirus 2 = experiment: Antiviral activity against Human herpesvirus 2 strain G infected HEL cells; format: functional; conditions: Human alphaherpesvirus 2, strain G
[3] = test system: Mammalian orthoreovirus 1; experiment: Antiviral activity against Mammalian orthoreovirus 1 infected Vero cells; format: functional
[4] = Cytotoxicity against Homo sapiens (human) HEL cells; format: cell-based
Escherichia coli = experiment: Antibacterial activity against Escherichia coli CIP 54127; format: functional
Saccharomyces cerevisiae = experiment: Antifungal activity against Saccharomyces cerevisiae ATCC 28383; format: functional
[5] = test system: Vesicular stomatitis virus; experiment: Antiviral activity against Vesicular stomatitis virus infected HeLa; format: functional
[6] = test system: Respiratory syncytial virus; experiment: Antiviral activity against Respiratory syncytial virus infected HeLa cells; format: functional; conditions: human respiratory syncytial virus
Coxsackievirus B4 [7] = experiment: Antiviral activity against Human coxsackievirus B4 infected Vero cells; format: functional; conditions: Enterovirus B
Vaccinia virus = experiment: Antiviral activity against Vaccinia virus infected HEL cells; format: functional; conditions: Orthopoxvirus vaccinia
Human alphaherpesvirus 1 [8] = experiment: Antiviral activity against thymidine kinase-deficient, acylcovir-resistant Human herpesvirus 1 strain KOS infected in HEL cells; format: functional; conditions: Human alphaherpesvirus 1, KOS
Punta Toro virus = experiment: Antiviral activity against Punta Toro virus infected Vero cells; format: functional
Staphylococcus aureus = experiment: Antibacterial activity against Staphylococcus aureus CIP 4.83; format: functional
Human alphaherpesvirus 1 [9] = experiment: Antiviral activity against Human herpesvirus 1 strain KOS infected in HEL cells; format: functional; conditions: Human alphaherpesvirus 1, KOS
Sindbis virus = experiment: Antiviral activity against Sindbis virus infected Vero cells; format: functional
Candida albicans = experiment: Antifungal activity against Candida albicans CIP 1180-79; format: functional
Coxsackievirus B4 [10] = experiment: Antiviral activity against Human coxsackievirus B4 infected HeLa cells; format: functional; conditions: Enterovirus B
[11] = Cytotoxicity against Chlorocebus aethiops (African green monkey) Vero cells; format: cell-based; conditions: chlorocebus sabaeus

SMILES	MCC [1] [µg/mL]	MIC [2] [µg/mL]	MIC (Human respirovirus 3) [µg/mL]	MIC (Human alphaherpesvirus 2) [µg/mL]	MIC [3] [µg/mL]	MCC [4] [µg/mL]	MIC (Escherichia coli) [µg/mL]	MIC (Saccharomyces cerevisiae) [µg/mL]	MIC [5] [µg/mL]	MIC [6] [µg/mL]	MIC (Coxsackievirus B4 [7]) [µg/mL]	MIC (Vaccinia virus) [µg/mL]	MIC (Human alphaherpesvirus 1 [8]) [µg/mL]	MIC (Punta Toro virus) [µg/mL]	MIC (Staphylococcus aureus) [µg/mL]	MIC (Human alphaherpesvirus 1 [9]) [µg/mL]	MIC (Sindbis virus) [µg/mL]	MIC (Candida albicans) [µg/mL]	MIC (Coxsackievirus B4 [10]) [µg/mL]	MCC [11] [µg/mL]
O=C1Nc2ccccc2/C1=N\c1ccc(Cc2cccc(/N=C3/C(=O)Nc4ccccc43)c2)cc1	≥ 16	> 16	> 16	> 16	> 16	80	< 50	< 50	3.2 (≈ 7.01 µM)	> 16	> 16	> 16	> 16	> 16	< 50	> 16	> 16	< 50	> 16	80
Nc1nc2c(ncn2COC(CO)CO)c(=O)[nH]1 [GANCICLOVIR]	–	> 100	–	4 (≈ 15.7 µM)	–	> 100	–	–	–	–	–	> 100	12 (≈ 47 µM)	–	–	0.48 (≈ 1.88 µM)	–	–	–	–
O=c1[nH]c(=O)n([C@H]2C[C@H](O)[C@@H](CO)O2)cc1/C=C/Br [BRIVUDINE]	500	> 500	> 100	> 500	> 100	> 500	–	–	> 500	> 500	> 100	60 (≈ 180 µM)	500 (≈ 1500 µM)	> 100	–	0.16 (≈ 0.48 µM)	> 100	–	> 500	500
NC(=O)c1ncn([C@@H]2O[C@H](CO)[C@@H](O)[C@H]2O)n1 [RIBAVIRIN]	> 500	> 500	300 (≈ 1230 µM)	> 500	300 (≈ 1230 µM)	> 500	–	–	60 (≈ 246 µM)	60 (≈ 246 µM)	> 500	300 (≈ 1230 µM)	> 500	60 (≈ 246 µM)	–	500 (≈ 2050 µM)	300 (≈ 1230 µM)	–	> 500	> 500
O=C1/C(=N\c2ccc(Oc3ccc(/N=C4\C(=O)N(Cc5ccccc5)c5ccccc54)cc3)cc2)c2ccccc2N1Cc1ccccc1	80	> 80	> 80	> 80	> 80	400	< 50	< 50	> 16	> 16	> 80	> 80	> 80	> 80	< 50	> 80	> 80	< 50	> 16	80
CCc1ccc2c(c1)/C(=N/c1c(CC)cc(Cc3cc(CC)c(/N=C4\C(=O)N(CC)c5ccc(CC)cc54)c(CC)c3Cl)c(Cl)c1CC)C(=O)N2CC	16	> 16	> 3.2	> 16	> 3.2	80	< 50	< 50	> 3.2	> 3.2	> 3.2	> 16	> 16	> 3.2	< 50	> 16	> 3.2	< 50	> 3.2	16
O=C1Nc2ccc(F)cc2/C1=N/c1ccc(Cc2ccc(/N=C3\C(=O)Nc4ccc(F)cc43)cc2)cc1	80	> 3.2	> 16	> 3.2	> 16	16	< 50	< 50	> 16	> 16	> 16	> 3.2	> 3.2	> 16	< 50	> 3.2	> 16	< 50	> 16	≥ 16
O=C1Nc2ccccc2/C1=N\c1ccc(Oc2cccc(/N=C3/C(=O)Nc4ccccc43)c2)cc1	≥ 16	> 80	> 80	> 80	> 80	400	< 50	< 50	> 16	> 16	> 80	> 80	> 80	> 80	< 50	> 80	> 80	< 50	> 16	400
O=C1/C(=N\c2ccc(Cc3ccc(/N=C4\C(=O)N(Cc5ccccc5)c5ccccc54)cc3)cc2)c2ccccc2N1Cc1ccccc1	200	> 8	> 8	> 8	> 8	40	< 50	< 50	> 40	> 40	> 8	> 8	> 8	> 8	< 50	> 8	> 8	< 50	> 40	40
O=C1Nc2ccccc2/C1=N\c1cccc(Cc2cccc(/N=C3/C(=O)Nc4ccccc43)c2)c1	≥ 16	> 16	> 16	> 16	> 16	80	< 50	< 50	9.6 (≈ 21 µM)	> 16	> 16	> 16	> 16	> 16	< 50	> 16	> 16	< 50	> 16	80
Nc1nc2c(ncn2COCCO)c(=O)[nH]1 [ACYCLOVIR]	–	> 500	–	20 (≈ 88.8 µM)	–	> 500	–	–	–	–	–	> 500	300 (≈ 1330 µM)	–	–	2.4 (≈ 10.7 µM)	–	–	–	–
O=C1Nc2ccccc2/C1=N/c1ccc(C(=O)c2ccc(/N=C3\C(=O)Nc4ccccc43)cc2)cc1	80	> 16	> 16	> 16	> 16	80	< 50	< 50	48 (≈ 102 µM)	> 16	> 16	> 16	> 16	> 16	< 50	> 16	> 16	< 50	> 16	≥ 16
O=C1Nc2ccc(F)cc2/C1=N\c1cccc(Cc2cccc(/N=C3/C(=O)Nc4ccc(F)cc43)c2)c1	80	> 16	> 16	> 16	> 16	80	< 50	< 50	9.6 (≈ 19.5 µM)	> 16	> 16	> 16	> 16	> 16	< 50	> 16	> 16	< 50	> 16	80
O=C1Nc2ccc(F)cc2/C1=N/c1ccc(Oc2ccc(/N=C3\C(=O)Nc4ccc(F)cc43)cc2)cc1	≥ 16	> 1.6	> 8	> 1.6	> 8	8	< 50	< 50	> 16	> 16	> 8	> 1.6	> 1.6	> 8	< 50	> 1.6	> 8	< 50	> 16	40
O=C1/C(=N/c2cccc(Cc3cccc(/N=C4/C(=O)N(Cc5ccccc5)c5ccccc54)c3)c2)c2ccccc2N1Cc1ccccc1	200	> 40	> 40	> 40	> 40	200	< 50	< 50	> 40	> 40	> 40	> 40	> 40	> 40	< 50	> 40	> 40	< 50	> 40	200
Nc1ncnc2c1ncn2C[C@H](O)CO [(S)-DHPA]	> 500	–	> 100	–	300 (≈ 1430 µM)	–	–	–	500 (≈ 2390 µM)	> 500	> 100	–	–	–	–	–	> 100	–	> 500	500
Cc1c(/N=C2/C(=O)Nc3ccccc32)cccc1/N=C1/C(=O)Nc2ccccc21	≥ 400	> 80	> 80	> 80	> 80	400	< 100	< 100	> 400	> 400	> 80	> 80	16 (≈ 42.1 µM)	> 80	< 100	> 80	> 80	< 100	> 400	400
